Earlier results as cited in paper PMC11328599, “Crystal structure of dihydroneopterin aldolase from Mycobacterium tuberculosis associated with 8-mercaptoguanine, and development of novel S8-functionalized analogues as inhibitors: Synthesis, enzyme inhibition, in vitro toxicity and antitubercular activity” (Journal of Enzyme Inhibition and Medicinal Chemistry, 2024).

Molecular target: T1, MtFolB (Mycobacterium tuberculosis, UniProt P9WNC5)
T1 construct: made in house
Set-up: method as in PMID 33752554
Conditions: previously reported; cited from earlier work

T1 sequence (P9WNC5 whole entry): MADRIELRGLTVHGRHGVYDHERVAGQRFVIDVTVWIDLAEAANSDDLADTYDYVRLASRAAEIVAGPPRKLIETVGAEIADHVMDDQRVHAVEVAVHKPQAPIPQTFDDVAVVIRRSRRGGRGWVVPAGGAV

Question: For `Nc1nc2nc(S)[nH]c2c(=O)[nH]1` [Compound 8-MG, 8-mercaptoguanine], which Inhibition mode is on record?
Answer: The Inhibition mode was “non-competitive”.
